Results taken from patent publication US10000791B2, “Measurement method for human pancreatic lipase activity” (ASAHI KASEI PHARMA CORPORATION, priority 2013, dated 2018).

Target: T1, human pancreatic lipase (Homo sapiens, UniProt P16233)
T1 construct: As a sample, pooled serum or a control sample (a control containing a pancreatic lipase) was used; from tissue; host or cells: human serum (pooled serum, normal samples, heparin-administered samples) and control sera
T1 sequence (P16233 17-465): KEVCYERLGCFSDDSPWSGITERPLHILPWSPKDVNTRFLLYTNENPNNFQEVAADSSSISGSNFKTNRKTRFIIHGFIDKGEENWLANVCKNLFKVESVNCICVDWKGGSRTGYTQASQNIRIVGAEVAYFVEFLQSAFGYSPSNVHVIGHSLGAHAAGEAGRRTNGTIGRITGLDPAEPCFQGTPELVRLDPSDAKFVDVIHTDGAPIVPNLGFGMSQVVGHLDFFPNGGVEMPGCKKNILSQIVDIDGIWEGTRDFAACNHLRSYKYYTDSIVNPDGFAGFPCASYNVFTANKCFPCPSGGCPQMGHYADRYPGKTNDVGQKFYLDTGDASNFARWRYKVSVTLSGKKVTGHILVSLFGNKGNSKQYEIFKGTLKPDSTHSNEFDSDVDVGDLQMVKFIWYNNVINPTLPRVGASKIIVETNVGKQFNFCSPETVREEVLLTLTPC
Test: lipase activity measured in control, normal and heparin-administered samples with each reagent (1,2-dioleoyl glycerol, UV method; Liquitech Lipase Color II for verification)
Type: biochemical
Conditions: Recombinant pancreatic lp-containing serum
Procedure: A mixture of the substrate stock solution and the R-1 in a proportion of 1:2 was used as a first reagent. The R-2 was directly used as a second reagent. As a sample, pooled serum or a control sample (a control containing a pancreatic lipase) was used. A proportion in amount among the sample, the first reagent and the second reagent was set as sample:first reagent:second reagent of 0.01 ml:0.18 ml:0.06 ml. The sample was added to the first reagent, the resultant mixture was heated at 37° C. for 5 minutes, the second reagent was added thereto, and a change rate of an absorbance at 340 nm based on reduced NADP was obtained at 37° C. from 3 minutes after the addition of the second reagent to 4 minutes after the addition, and then, the lipase activity was calculated by using a molecular extinction coefficient of 6300 L/mol·cm of the reduced NADP. Besides, as a sample blank, saline was used instead of a sample, an absorbance was measured by using the reagent for sample blank obtained by removing MGLPII from the second reagent, and a difference between the thus measured two values was defined as an enzyme activity value. For the measurement, Hitachi automatic analyzer Model H7170 or H7080 was used.
Similarly to Example 1, a mixture of the substrate stock solution and the R-1 in a proportion of 1:2 was used as a first reagent. Except for this, the measurement was performed in the same manner as in Example 1.
A commercially available reagent for a resorufin colorimetric method, “Liquitech Lipase Color II” manufactured by Roche Diagnostics using 1,2-O-dilauryl-rac-glycerol-3-glutaric acid-(6-methylresorufin)ester (DGGR), which is regarded not to be influenced by a non-pancreatic lipase, such as a lipoprotein lipase or a hepatic lipase, appearing in blood due to administration of heparin, was used for verifying the effect of the present example. “Liquitech Lipase Color II” was used in accordance with the package insert, and a special calibrator was used for calculating the enzyme activity. […] The concentration of each bile acid used in the present example was set to be the same as that in the comparative example.
As samples, a control, non-heparin-administered samples (normal samples), and heparin-administered samples were used.
The compositions of the reagents were the same as those of Example 2. As a comparative example, NaDCA (in a concentration of 40 mmol/L in the R-1) was used as the bile acid, and the reaction solution was adjusted to pH 8.15 (by the Bicine buffer) for measuring a heparin-administered sample.
It is noted that CRM-001b containing a human pancreatic recombinant lipase dissolved not in distilled water but in a pooled serum was used as the calibrator to calculate the lipase activity.
As a bile acid of the present example and a reference example, NaTDCA was selected, and the pH dependence with the pH of a reaction solution changed in a range of 6.2 to 7.6 was examined. It is noted that a case of pH 7.6 was used as the reference example. An MES buffer was used for adjusting pH to 6.2 and 6.4, and the BES buffer was used for adjusting the other pHs. As samples, (six) control samples (controls each containing a pancreatic lipase) and (nine) heparin-administered samples were used. As a comparative example, NaDCA (in a concentration of 40 mmol/L in the R-1) was used as the bile acid, and a reaction solution having pH 8.15 (the Bicine buffer) was used. Besides, “Liquitech Lipase Color II” manufactured by Roche Diagnostics was used for verifying the effect of the present example.

Row | lipase activity (Table 3) (pH 6.2) [U/L] | lipase activity (Table 3) (pH 6.4) [U/L] | lipase activity (Table 3) (pH 6.6) [U/L] | lipase activity (Table 3) (pH 6.9) [U/L] | lipase activity (Table 3) (pH 7.2) [U/L] | lipase activity (Table 3) (pH 7.4) [U/L] | lipase activity (Table 3) (pH 7.6) [U/L] | Structure (SMILES) | lipase activity (Table 5) (pH 7.0) [U/L] | lipase activity (Table 5) (pH 7.95) [U/L]
1 | 180.8 | 184.7 | 211.9 | 233.1 | 229.8 | 217.3 | 168.8 | C[C@H](CCC(=O)NCCS(=O)(=O)[O-])[C@H]1CC[C@H]2[C@@H]3CC[C@@H]4C[C@H](O)CC[C@]4(C)[C@H]3C[C@H](O)[C@]12C.[Na+] [NaTDCA, sodium taurodeoxycholate] |  | 
2 |  |  |  |  |  |  |  | C[C@H](CCC(=O)NCC(=O)[O-])[C@H]1CC[C@H]2[C@@H]3[C@H](O)C[C@@H]4C[C@H](O)CC[C@]4(C)[C@H]3CC[C@]12C.[Na+] [NaGCDCA, sodium glycochenodeoxycholate] | 166.1 | 72.4
